Results from patent publication US9718804B2, “GSK-3 inhibitors” (BRISTOL-MYERS SQUIBB COMPANY, priority 2013, dated 2017).
pIC50: −log10 of the molar value. Where two headings read alike, the source gives them in different places.

How the values were obtained:
pTau = pTau assay (no method described); format: cell-based
GSK3β = GSK3β (Homo sapiens, UniProt P49841); test: GSK3β kinase assay (Caliper LabChip, fluoresceinated peptide substrate); format: biochemical; details: for IC50: first value of the cell, 250 pM enzyme, 20 uM ATP, 20 hours at room temperature, read-out: GSK3β/α (nM): GSK3β IC50
Protocol: (§1) The kinase assay was performed in V-bottom 384-well plates. […] The reaction was incubated at room temperature for 20 hours and terminated by adding 45 μl of 35 mM EDTA to each sample. The reaction mixture was analyzed on the Caliper LabChip3000 (Caliper, Hopkinton, Mass.) by electrophoretic separation of the unphosphorylated substrate and phosphorylated product. […] Compounds were dissolved at 10 mM in dimethylsulfoxide (DMSO) and evaluated at eleven concentrations. IC50 values were derived by non-linear regression analysis.

GSK3α = GSK3α (Homo sapiens, UniProt P49840); test: GSK3α kinase assay (Caliper LabChip, fluoresceinated peptide substrate); format: biochemical; details: for IC50: second value of the cell, 250 pM enzyme, 20 uM ATP, 20 hours at room temperature, read-out: GSK3β/α (nM): GSK3α IC50
Protocol: as §1

Chain of GSK3β (P49841 whole entry, species assumed): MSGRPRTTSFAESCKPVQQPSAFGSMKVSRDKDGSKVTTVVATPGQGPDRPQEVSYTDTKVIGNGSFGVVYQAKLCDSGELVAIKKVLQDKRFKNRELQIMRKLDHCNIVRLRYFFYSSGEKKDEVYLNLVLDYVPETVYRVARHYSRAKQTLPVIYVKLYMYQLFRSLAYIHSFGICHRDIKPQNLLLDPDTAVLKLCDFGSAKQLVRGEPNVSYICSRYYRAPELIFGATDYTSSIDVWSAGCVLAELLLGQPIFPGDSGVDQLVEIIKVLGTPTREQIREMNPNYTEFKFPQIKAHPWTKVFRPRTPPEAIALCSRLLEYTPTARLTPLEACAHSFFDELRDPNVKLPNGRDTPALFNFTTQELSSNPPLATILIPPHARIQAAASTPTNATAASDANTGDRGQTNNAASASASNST
Chain of GSK3α (P49840 whole entry, species assumed): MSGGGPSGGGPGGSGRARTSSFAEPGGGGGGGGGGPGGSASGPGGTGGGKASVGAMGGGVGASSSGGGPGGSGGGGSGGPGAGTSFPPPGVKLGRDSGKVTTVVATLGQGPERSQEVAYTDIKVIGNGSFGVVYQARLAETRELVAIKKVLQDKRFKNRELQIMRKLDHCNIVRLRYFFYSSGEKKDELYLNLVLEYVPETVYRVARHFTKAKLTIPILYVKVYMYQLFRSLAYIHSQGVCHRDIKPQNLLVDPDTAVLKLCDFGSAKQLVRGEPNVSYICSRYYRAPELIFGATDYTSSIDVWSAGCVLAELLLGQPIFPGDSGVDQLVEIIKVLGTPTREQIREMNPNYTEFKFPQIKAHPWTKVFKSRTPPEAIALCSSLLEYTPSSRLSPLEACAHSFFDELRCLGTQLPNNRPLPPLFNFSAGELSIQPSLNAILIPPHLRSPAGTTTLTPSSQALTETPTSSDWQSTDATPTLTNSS

Structure (SMILES)	pIC50 (pTau)	IC50 (GSK3β) [nM]	pIC50 (GSK3α)	pIC50 (GSK3β)	IC50 (GSK3α) [nM]
CC[C@@]1(c2cc(Cl)ncc2NC(=O)c2ccnc(Nc3ccc(C(F)(F)F)cn3)c2)OC[C@H](C(F)(F)F)O1 [Example 86, N-(6-Chloro-4-((2R,4R)-2-ethyl-4-(trifluoromethyl)-1,3-dioxolan-2-yl)pyridin-3-yl)-2-((5-(trifluoromethyl)pyridin-2-yl)amino)isonicotinamide]	6.29	12	8.62		
CC(C)CSc1ccncc1NC(=O)c1ccnc(Nc2ccc(C(F)(F)F)cn2)c1 [Example 175, N-(4-(Isobutylthio)pyridin-3-yl)-2-((5-(trifluoromethyl)pyridin-2-yl)amino)isonicotinamide]	7.11	1.1	9.40		
O=C(Nc1cnccc1N1CCCCC1)c1ccnc(Nc2ccc(C(F)(F)F)cn2)c1 [Example 23, N-(4-(Piperidin-1-yl)pyridin-3-yl)-2-((5-(trifluoromethyl)pyridin-2-yl)amino)isonicotinamide]	8.19	0.24	9.82		
CC1OC(C)(c2cc(Cl)ncc2NC(=O)c2ccnc(Nc3ccc(C(F)(F)F)cn3)c2)OC1C (stereo not drawn) [Example 78, N-(6-Chloro-4-(2,4,5-trimethyl-1,3-dioxolan-2-yl)pyridin-3-yl)-2-((5-(trifluoromethyl)pyridin-2-yl)amino)isonicotinamide]	6.77	4.5	8.49		
CC(C)Sc1ccncc1NC(=O)c1ccnc(Nc2ccc(C(F)(F)F)cn2)c1 [Example 173, N-(4-(Isopropylthio)pyridin-3-yl)-2-((5-(trifluoromethyl)pyridin-2-yl)amino)isonicotinamide]	7.32	0.52	9.72		
CCCC1(c2cc(Cl)ncc2NC(=O)c2ccnc(Nc3ccc(C(F)(F)F)cn3)c2)OCCO1 [Example 88, N-(6-Chloro-4-(2-propyl-1,3-dioxolan-2-yl)pyridin-3-yl)-2-((5-(trifluoromethyl)pyridin-2-yl)amino)isonicotinamide]	7.10	0.69	9.64		
CC1(COc2cncc(NC(=O)c3ccnc(Nc4cccc(C(F)(F)F)n4)c3)c2)CC1 [Example 125, N-(5-((1-Methylcyclopropyl)methoxy)pyridin-3-yl)-2-((6-(trifluoromethyl)pyridin-2-yl)amino)isonicotinamide]	5.66		8.42	7.92	
O=C(Nc1cnccc1OCC(F)(F)F)c1ccnc(Nc2ccc(Cl)cn2)c1 [Example 31, 2-((5-Chloropyridin-2-yl)amino)-N-(4-(2,2,2-trifluoroethoxy)pyridin-3-yl)isonicotinamide]	7.66	0.74	9.52		
CC(C)S(=O)(=O)c1ccncc1NC(=O)c1ccnc(Nc2ccc(C(F)(F)F)cn2)c1 [Example 186, N-(4-(Isopropylsulfonyl)pyridin-3-yl)-2-((5-(trifluoromethyl)pyridin-2-yl)amino)isonicotinamide]	8.70			8.92	0.04
N#Cc1cccc(Nc2cc(C(=O)Nc3cncc(-c4ccccc4F)c3)ccn2)n1 [Example 152, 2-((6-Cyanopyridin-2-yl)amino)-N-(5-(2-fluorophenyl)pyridin-3-yl)isonicotinamide]	6.59	1.6	9.06		
O=C(Nc1cnccc1Sc1ccccc1)c1ccnc(Nc2ccc(C(F)(F)F)cn2)c1 [Example 172, N-(4-(Phenylthio)pyridin-3-yl)-2-((5-(trifluoromethyl)pyridin-2-yl)amino)isonicotinamide]	6.62	5.6	8.96		
CCOc1ccncc1NC(=O)c1ccnc(Nc2ccc(C(F)(F)F)cn2)c1 [Example 15, N-(4-Ethoxypyridin-3-yl)-2-((5-trifluoromethylpyridin-2-yl)amino)isonicotinamide]	7.38	1.3	9.25		
O=C(Nc1cncc(F)c1-c1ccccc1)c1ccnc(Nc2ccc(C(F)(F)F)cn2)c1 [Example 117, N-(5-Fluoro-4-phenylpyridin-3-yl)-2-((5-(trifluoromethyl)pyridin-2-yl)amino)isonicotinamide]	6.60	3	8.85		
Cc1cc(C(C)(O)C2CC2)c(NC(=O)c2ccnc(Nc3ccc(C(F)(F)F)cn3)c2)cn1 (stereo not drawn) [Example 107, N-(4-(1-Cyclopropyl-1-hydroxyethyl)-6-methylpyridin-3-yl)-2-((5-(trifluoromethyl)pyridin-2-yl)amino)isonicotinamide]	7.03	0.92	9.12		
O=C(Nc1cnccc1-c1ccc(F)cc1F)c1ccnc(Nc2ccc(C(F)(F)F)cn2)c1 [Example 54, N-(4-(2,4-Difluoro-phenyl)pyridin-3-yl)-2-((5-(trifluoromethyl)pyridin-2-yl)amino)isonicotinamide]	7.24	2.8	9.02		
O=C(Nc1cncnc1)c1ccnc(Nc2ccc(C(F)(F)F)cn2)c1 [Example 191, N-(Pyrimidin-5-yl)-2-((5-(trifluoromethyl)pyridin-2-yl)amino)isonicotinamide]	5.80	17	8.05		
O=C(Nc1cnccc1-c1ccc(F)cc1)c1ccnc(Nc2ccc(C(F)(F)F)cn2)c1 [Example 50, N-(4-(4-Fluorophenyl)pyridin-3-yl)-2-((5-(trifluoromethyl)pyridin-2-yl)amino)isonicotinamide]	7.27	2.1	9.07		
CCC1(c2cc(Cl)ncc2NC(=O)c2ccnc(Nc3ccccn3)c2)OCCO1 [Example 108, N-(6-Chloro-4-(2-ethyl-1,3-dioxolan-2-yl)pyridin-3-yl)-2-(pyridin-2-ylamino)isonicotinamide]	7.52			8.85	0.95
O=C(Nc1cnc(Cl)cc1C1(c2ccccc2)OCCO1)c1ccnc(Nc2ccc(C(F)(F)F)cn2)c1 [Example 95, N-(6-Chloro-4-(2-phenyl-1,3-dioxolan-2-yl)pyridin-3-yl)-2-((5-(trifluoromethyl)pyridin-2-yl)amino)isonicotinamide]	6.04	10	8.26		
O=C(Nc1cnc(Cl)cc1S(=O)(=O)C1CC1)c1ccnc(Nc2ccc(C(F)(F)F)cn2)c1 [Example 188, N-(6-Chloro-4-(cyclopropylsulfonyl)pyridin-3-yl)-2-((5-(trifluoromethyl)pyridin-2-yl)amino)isonicotinamide]	6.82	5	8.48		
N#Cc1ccc(-c2ccncc2NC(=O)c2ccnc(Nc3ccc(C(F)(F)F)cn3)c2)c(F)c1 [Example 52, N-(4-(2-Fluoro-4-cyano-phenyl)pyridin-3-yl)-2-((5-(trifluoromethyl)pyridin-2-yl)amino)isonicotinamide]	7.46	3.6	8.82		
CCOc1ccncc1NC(=O)c1ccnc(Nc2ccc(C)cn2)c1 [Example 14, N-(4-Ethoxypyridin-3-yl)-2-((5-methylpyridin-2-yl)amino)isonicotinamide]	6.90	0.47	8.82		
O=C(Nc1cnc(Cl)cc1C1(O)CCOCC1)c1ccnc(Nc2ccc(Cl)cn2)c1 [Example 111, N-(6-Chloro-4-(4-hydroxytetrahydro-2H-pyran-4-yl)pyridin-3-yl)-2-((5-chloropyridin-2-yl)amino)isonicotinamide]	6.28			8.59	1.4
CC(=O)c1c(NC(=O)c2ccnc(Nc3ccc(C(F)(F)F)cn3)c2)cnn1C [Example 206, N-(5-Acetyl-1-methyl-1H-pyrazol-4-yl)-2-((5-(trifluoromethyl)pyridin-2-yl)amino)isonicotinamide]	6.40	3.1	8.57		
CCC1(c2cc(Cl)ncc2NC(=O)c2ccnc(Nc3ccc(C(F)(F)F)cn3)c2)OC(C)C(C)O1 (stereo not drawn) [Example 81, N-(6-Chloro-4-(2-ethyl-4,5-dimethyl-1,3-dioxolan-2-yl)pyridin-3-yl)-2-((5-(trifluoromethyl)pyridin-2-yl)amino)isonicotinamide]	5.72	6.7	8.40		
Cc1cc(Nc2cc(C(=O)Nc3cnccc3-c3ccccc3)ccn2)ncc1F [Example 9, 2-((5-Fluoro-4-methylpyridin-2-yl)amino)-N-(4-phenylpyridin-3-yl)isonicotinamide]	6.96	4.1	8.60		
O=C(Nc1cnccc1-c1ccc(F)cc1)c1ccnc(Nc2ccc(Cl)cn2)c1 [Example 58, 2-((5-Chloropyridin-2-yl)amino)-N-(4-(4-fluorophenyl)pyridin-3-yl)isonicotinamide]	7.24	0.86	9.44		
CC(C)(C)S(=O)(=O)c1ccncc1NC(=O)c1ccnc(Nc2ccc(C(F)(F)F)cn2)c1 [Example 187, N-(4-(tert-butylsulfonyl)pyridin-3-yl)-2-((5-(trifluoromethyl)pyridin-2-yl)amino)isonicotinamide]	8.96	0.4	10.15		
CCC1(c2cc(Cl)ncc2NC(=O)c2ccnc(Nc3ccc(C(F)(F)F)cn3)c2)OCCO1 [Example 79, N-(6-Chloro-4-(2-ethyl-1,3-dioxolan-2-yl)pyridin-3-yl)-2-((5-(trifluoromethyl)pyridin-2-yl)amino)isonicotinamide]	7.48	0.31	9.77		
